Here are results for 57 compounds from patent US20130131075A1, “NEW COMPOUNDS” (Boehringer Ingelheim International GmbH, priority 2009, published 2013).

The target of the assay is T1, cynomolgus BK1-receptor (Macaca fascicularis, UniProt Q3BCU0).
T1 construct: expressed in transfected cells; host or cells: CHO cells (homogenate)
T1 sequence (Q3BCU0 1-352): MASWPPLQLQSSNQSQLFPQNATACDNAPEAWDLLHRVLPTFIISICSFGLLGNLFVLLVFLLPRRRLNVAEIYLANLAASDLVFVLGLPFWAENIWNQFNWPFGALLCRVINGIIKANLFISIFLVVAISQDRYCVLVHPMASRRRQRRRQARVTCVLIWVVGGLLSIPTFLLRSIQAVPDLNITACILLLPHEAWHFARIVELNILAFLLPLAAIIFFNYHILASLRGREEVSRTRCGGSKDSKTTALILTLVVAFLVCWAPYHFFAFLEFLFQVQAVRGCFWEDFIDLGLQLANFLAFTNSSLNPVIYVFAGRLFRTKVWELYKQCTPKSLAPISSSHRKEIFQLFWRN
The assay is described as follows: cynoBK1-receptor binding assay. Conditions: CHO cells expressing cynomolgus BK1-receptor, radioligand kallidine (DesArg10,Leu9); for inhibition at 10 µM: at 10 μgmol/L. In a few lines: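 Radioligand competition on homogenates of CHO cells expressing cynomolgus BK1 receptor (50 to 250 μg protein/assay), incubated 60-180 minutes at ambient temperature with 0.5 to 5.0 nM [3H]kallidine (DesArg10,Leu9) plus increasing test compound. Filtration binding; non-specific defined with 1.0 μM kallidine (DesArg10); Ki from non-linear curve fitting.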

For orientation: Ki means the equilibrium dissociation constant of an inhibitor or competing ligand from its target. Lower therefore signals higher affinity. A word on the inhibition: it is the change of the read-out against control, counted positive when it falls. Take `O=C(N[C@@]1(C(=O)NCc2ncc(Nc3c(F)cccc3C(F)(F)F)cc2F)CCOC1)c1cncnc1` [(158)]: affinity was put at a Ki of 115 nM and the inhibition at 10 µM was found to be 101%.
The corresponding values for `O=C(N[C@@]1(C(=O)NCc2ccc(Nc3ccc(F)cc3C(F)(F)F)cn2)CCOC1)c1cnc2[nH]cnc2c1` [(159)] are 97 nM and 91%.
The like results for `N#Cc1cc(F)ccc1Nc1cnc(CNC(=O)C2(NC(=O)c3cncnc3)CC2)c(F)c1` [(160)] were, in that order, 17 nM and 106%.
The like results for `N#Cc1cc(OC(F)(F)F)ccc1Nc1ccc(CNC(=O)C2(NC(=O)c3cncnc3)CC2)cc1` [(161)] were, in that order, > 500 nM and 69%.
Regarding `N#Cc1cc(Cl)ccc1Nc1ccc(CNC(=O)C2(NC(=O)c3cncnc3)CC2)cc1` [(162)], the Ki came to 17 nM and the inhibition at 10 µM was 104%.
Turning to `CC(NC(=O)[C@]1(NC(=O)c2cncnc2)CCOC1)c1ccc(Nc2ccc(Cl)cc2C(F)(F)F)cn1` (some centres unmarked) [(163)], affinity was put at a Ki of 288 nM and the inhibition at 10 µM was 87%.
`CC(NC(=O)C1(NC(=O)c2cncnc2)CC1)c1ccc(Nc2ccc(Cl)cc2C(F)(F)F)cn1` (centres unmarked) [(164)]: the affinity, expressed as Ki, was 3.4 nM and the inhibition at 10 µM was determined as 106%.
For `O=C(NC1(C(=O)NCc2ncc(Nc3ccc(Cl)cc3C(F)(F)F)cc2F)CC1)c1cncnc1` [(165)], the inhibition at 10 µM turned out to be 101%.
On to `O=C(NC1(C(=O)NCc2ccc(Nc3ccc(Cl)cc3Cl)cn2)CC1)c1cncnc1` [(166)], for which the inhibition constant (Ki) was found to be 45 nM and the inhibition at 10 µM amounted to 104%.
The corresponding values for `O=C(NC1(C(=O)NCc2ccc(Nc3ccc(Cl)cc3Br)cn2)CC1)c1cncnc1` [(167)] are 19 nM and 104%.
The corresponding values for `CNc1cncc(C(=O)NC2(C(=O)NCc3ccc(Nc4ccc(F)cc4C(F)(F)F)cn3)CC2)n1` [(168)] are 235 nM and 90%.
The corresponding values for `Nc1ncc(C(=O)NC2(C(=O)NCc3ccc(Nc4ccc(F)cc4C(F)(F)F)cn3)CC2)o1` [(169)] are 292 nM and 90%.
As to `CC(C#N)C(=O)NC1(C(=O)NCc2ccc(Nc3ccc(F)cc3C(F)(F)F)cn2)CC1` (centres unmarked) [(170)], the inhibitory constant (Ki) was 35 nM and the inhibition at 10 µM was 104%.
Turning to `O=C(NC1(C(=O)NCc2ccc(Nc3ccc(Br)cc3C(F)(F)F)cn2)CC1)c1ccnc(O)c1` [(171)], the inhibition at 10 µM is 97%.
Regarding `O=C(NC1(C(=O)NCc2ccc(Nc3ccc(Br)cc3C(F)(F)F)cn2)CC1)c1cncs1` [(172)], the inhibition constant Ki stood at 9.8 nM and the inhibition at 10 µM amounted to 100%.
The like results for `Nc1ccc(C(=O)NC2(C(=O)NCc3ccc(Nc4ccc(Br)cc4C(F)(F)F)cn3)CC2)cn1` [(173)] were, in that order, 2.7 nM and 105%.
`O=C(NC1(C(=O)NCc2ccc(Nc3ccc(Br)cc3C(F)(F)F)cn2)CC1)c1ccnnc1` [(174)]: the inhibition at 10 µM stood at 99%.
As to `CN(C)c1ncc(C(=O)NC2(C(=O)NCc3ccc(Nc4ccc(Br)cc4C(F)(F)F)cn3)CC2)cn1` [(175)], the affinity corresponds to a Ki of 63 nM and the inhibition at 10 µM came to 96%.
In the case of `O=C(NC1(C(=O)NCc2ccc(Nc3ccc(Br)cc3C(F)(F)F)cn2)CC1)c1cc(O)nc(O)n1` [(176)], the inhibition at 10 µM stood at 100%.
On the same count and under the same terms, under `Cn1ccc(C(=O)NC2(C(=O)NCc3ccc(Nc4ccc(Br)cc4C(F)(F)F)cn3)CC2)cc1=O` [(177)] stands 99%.
In the case of `Nc1cncc(C(=O)NC2(C(=O)NCc3ccc(Nc4ccc(Br)cc4C(F)(F)F)cn3)CC2)c1` [(178)], the affinity corresponds to a Ki of 11 nM and the inhibition at 10 µM turned out to be 107%.
As to `O=C(NC1(C(=O)NCc2ncc(Nc3ccc(Br)cc3C(F)(F)F)cc2F)CC1)c1cncnc1` [(179)], the inhibition at 10 µM turned out to be 101%.
In the case of `CC(NC(=O)C1(NC(=O)c2cncnc2)CC1)c1ccc(Nc2ccc(Br)cc2C(F)(F)F)cn1` (centres unmarked) [(180)], affinity was put at a Ki of 1.6 nM and the inhibition at 10 µM worked out at 106%.
With `Cc1ncc(C(=O)NC2(C(=O)NCc3ccc(Nc4ccc(F)cc4C#N)cc3)CC2)cn1` [(181)], the inhibition constant Ki came to 19 nM and the inhibition at 10 µM was 99%.
As to `COc1ncc(C(=O)NC2(C(=O)NCc3ccc(Nc4ccc(F)cc4C#N)cc3)CC2)cn1` [(182)], affinity was put at a Ki of 20 nM and the inhibition at 10 µM is 99%.
The like results for `CNc1ncc(C(=O)NC2(C(=O)NCc3ccc(Nc4ccc(F)cc4C#N)cc3)CC2)cn1` [(183)] were, in that order, 21 nM and 100%.
For `Nc1ncc(C(=O)NC2(C(=O)NCc3ccc(Nc4ccc(F)cc4C(F)(F)F)cn3)CC2)s1` [(184)], the inhibition at 10 µM was 99%.
Take `Nc1cc(C(=O)NC2(C(=O)NCc3ccc(Nc4ccc(F)cc4C(F)(F)F)cn3)CC2)[nH]n1` [(185)]: the inhibition at 10 µM was 87%.
On the same count and under the same terms, the same measure for `Cc1nc(N)sc1C(=O)NC1(C(=O)NCc2ccc(Nc3ccc(F)cc3C(F)(F)F)cn2)CC1` [(186)]: 82%; for `O=C(NC1(C(=O)NCc2ncc(Nc3ccc(F)cc3C(F)(F)F)cc2Cl)CC1)c1cncnc1` [(187)]: 100%.
On to `CC(NC(=O)[C@]1(NC(=O)c2cncnc2)CCOC1)c1ccc(Nc2ccc(Br)cc2C(F)(F)F)cn1` (some centres unmarked) [(188)], for which the Ki stood at 43 nM and the inhibition at 10 µM was found to be 92%.
Take `Cc1ccc(Nc2ccc(CNC(=O)C3(NC(=O)c4cncnc4)CC3)nc2)c(Cl)c1` [(189)]: the Ki is > 500 nM and the inhibition at 10 µM was 96%.
Regarding `O=C(NC1(C(=O)NCc2ccc(Nc3ccc(F)cc3Cl)cn2)CC1)c1cncnc1` [(190)], the inhibition at 10 µM worked out at 91%.
On the same count and under the same terms, under `O=C(NC1(C(=O)NCc2ccc(Nc3ccccc3C(F)(F)F)cn2)CCCCC1)c1cncnc1` [(191)] stands 56%; under `O=C(NC1(C(=O)NCc2ccc(Nc3ccccc3C(F)(F)F)cn2)CCC(O)C1)c1cncnc1` (centres unmarked) [(192)], 95%; under `O=C1CCC(NC(=O)c2cncnc2)(C(=O)NCc2ccc(Nc3ccccc3C(F)(F)F)cn2)C1` (centres unmarked) [(193)], 101%.
The same measure, in the same setting: the same measure for `O=C(NC1(C(=O)NCc2ccc(Nc3ccccc3C(F)(F)F)cn2)CC[S+]([O-])C1)c1cncnc1` (centres unmarked) [(194)]: 95%.
As for `O=C(O)c1ccc(Nc2ccc(CNC(=O)C3(NC(=O)c4cncnc4)CC3)nc2)c(C(F)(F)F)c1` [(195)], the inhibitory constant (Ki) was > 500 nM and the inhibition at 10 µM turned out to be 42%.
Consider `COC(=O)c1ccc(Nc2ccc(CNC(=O)C3(NC(=O)c4cncnc4)CC3)nc2)c(C(F)(F)F)c1` [(196)], for which the Ki is > 500 nM and the inhibition at 10 µM is 82%.
On to `N#Cc1ccc(Nc2ccc(CNC(=O)C3(NC(=O)c4cncnc4)CC3)nc2)c(C(F)(F)F)c1` [(197)], for which the Ki is > 500 nM and the inhibition at 10 µM is 81%.
The corresponding values for `NC(=O)c1ccc(Nc2ccc(CNC(=O)C3(NC(=O)c4cncnc4)CC3)nc2)c(C(F)(F)F)c1` [(198)] are > 500 nM and 64%.
Consider `O=C(NC1(C(=O)NCc2ccc(Nc3c(F)cccc3Cl)cn2)CC1)c1cncnc1` [(200)], for which the inhibition at 10 µM worked out at 92%.
`CC(NC(=O)C1(NC(=O)c2cncnc2)CC1)c1ncc(Nc2ccc(Cl)cc2C(F)(F)F)cc1F` (centres unmarked) [(203)] came in with a Ki of 1.9 nM.
Same read-out and setting: under `CC(C)c1ccc(Nc2ccc(CNC(=O)C3(NC(=O)c4cncnc4)CC3)nc2)c(C(F)(F)F)c1` [(204)] stands 402 nM; under `O=C(NC1(C(=O)NCc2ccc(Nc3ccc(Cl)cc3C(F)(F)F)cn2)CC1)c1cncc(O)c1` [(205)], 17 nM.
Same read-out and setting: under `Nc1ccc(C(=O)NC2(C(=O)NCc3ccc(Nc4ccc(Cl)cc4C(F)(F)F)cn3)CC2)cn1` [(206)] stands 5.1 nM; under `O=C(NC1(C(=O)NCc2ccc(Nc3ccc(Cl)cc3C(F)(F)F)cn2)CC1)c1ccnc(O)c1` [(207)], 84 nM.
In turn, `O=C(NC1(C(=O)NCc2ccc(Nc3ccc(Cl)cc3C(F)(F)F)cn2)CC1)c1cc(O)nc(O)n1` [(208)] yielded a Ki of 6.8 nM.
The compound `O=C(NC1(C(=O)NCc2ccc(Nc3ccc(Cl)cc3C(F)(F)F)cn2)CC1)c1ccnnc1` [(209)] yielded a Ki of 73 nM. Compared with the last compound, the Ki is about 11-fold higher.
The same measure, in the same setting: the same measure for `CN(C)c1ncc(C(=O)NC2(C(=O)NCc3ccc(Nc4ccc(Cl)cc4C(F)(F)F)cn3)CC2)cn1` [(210)]: 187 nM; for `O=C(NC1(C(=O)NCc2ccc(Nc3ccc(Cl)cc3C(F)(F)F)cn2)CC1)c1cccc(O)n1` [(211)]: 25 nM; for `CC(NC(=O)C1(NC(=O)c2cncnc2)CC1)c1ncc(Nc2ccc(F)cc2C#N)cc1F` (centres unmarked) [(212)]: 8 nM.
Take `CC(NC(=O)C1(NC(=O)c2cncnc2)CC1)c1ncc(Nc2ccc(Br)cc2C(F)(F)F)cc1F` (centres unmarked) [(213)]: the Ki was determined as 1.9 nM.
In the case of `Nc1cncc(C(=O)N[C@@]2(C(=O)NCc3ccc(Nc4ccc(F)cc4C(F)(F)F)cc3)CCOC2)c1` [(214)], the inhibitory constant (Ki) amounted to 13 nM.
Regarding `O=C(N[C@@]1(C(=O)NCc2ncc(Nc3ccc(F)cc3C(F)(F)F)cc2Cl)CCOC1)c1cncnc1` [(216)], the Ki was 7.8 nM.
The same measure, in the same setting: the same measure for `Nc1cncc(C(=O)NC2(C(=O)NCc3ccc(Nc4ccc(Cl)cc4C(F)(F)F)cn3)CC2)c1` [(217)]: 12 nM.
`Nc1cncc(C(=O)NC2(C(=O)NCc3ncc(Nc4ccc(F)cc4C(F)(F)F)cc3Cl)CC2)c1` [(218)] had an inhibitory constant (Ki) of 3.7 nM.
